The test system of experiment [1] is ovarian cancer cell line OVCAR-5. The experiment in a line: Growth inhibition, sulforhodamine-based protein determination, OVCAR-5. In kind it is cell-based. The note with it: Homo sapiens, OVCAR-5, 144 h; continuous exposure six days. Here is the method: (§1) The novel compound SR 13179 was assayed for its ability to inhibit growth in several cancer cell lines. The cell lines studied included breast cancer cell line MCF-7 (ER+); prostate cancer cell lines LNCaP, PC3, and DU145; lung cancer cell line A427; ovarian cancer cell lines IGROV1, OVCAR-3, OVCAR-4, OVCAR-5, OVCAR-8, and SK-OV-3; and colon cancer cell lines COLO 205, HCC-2998, HCT-116, HCT-15, HT29, KM12, AND SW-620.
(§2) The growth assays for the breast cancer cell lines were conducted according to the method of Example 16. For the other cell lines, each assay was conducted with continuous exposure to the test compound at four log concentrations for six days, using a sulforhodamine-based protein determination to measure growth inhibition.

A further experiment deals with MMP-2. The experiment in a line: Western blotting of cell-associated MMP-2 protein, MCF-10-CA1a cells. The format is cell-based, human. The conditions noted are these: 1, 3, or 5 μM, 48 h. An excerpt: Western Blotting. Proteins were separated by gel electrophoresis using 4-12% pre-cast SDS-polyacrylamide gels (Invitrogen, Carlsbad, Calif.) and then electrophoretically transferred onto Hybond™-P membrane (Amersham Biosciences, Piscataway, N.J.). Blots were probed with specific antibodies (Santa Cruz Biotechnology, Inc). The ECL Plus Western Blotting Detection System of Amersham Biosciences (Piscataway, N.J.) and the procedure recommended by the manufacturer was used for the detection of antigens. Protein bands were quantified by analyzing the images obtained using an Alphaimager™ S-3400 (Alpha Innotech Corp., San Leandro, Calif.).
The effect of SR 13179 on cell-associated MMP-2 and MMP-9 protein levels was studied. MCF-10-CA1a cells were treated with SR 13179 at 1, 3, or 5 μM concentrations for 48 h. Untreated cells were used as control. Proteins were separated by SDS-Polyacrylamide gel electrophoresis and electrophoretically transformed onto Hybond™ P membrane (Amerhsam Biosciences). Blots were probed with specific antibodies (Santa Cruz Biotechnology Inc.).
In general terms: A western blot detects proteins with antibodies after separation by electrophoresis.

In experiment [2] the test system is ovarian cancer cell line OVCAR-3. The experiment can be described thus: Growth inhibition, sulforhodamine-based protein determination, OVCAR-3. The note with it: Homo sapiens, OVCAR-3, 144 h; continuous exposure six days. The format is cell-based. On the procedure:
as §1, §2

Experiment [3] has as its system ovarian cancer cell line SK-OV-3. The experiment can be described thus: Growth inhibition, sulforhodamine-based protein determination, SK-OV-3. The format is cell-based. The note with it: Homo sapiens, SK-OV-3, 144 h; continuous exposure six days. Here is the method: as §1, §2
The test system of experiment [4] is LNCaP human prostate cancer cells. The experiment in a line: Cell cycle arrest in LNCaP cells (Hoechst 33258 nuclear morphology, flow cytometry). The format is cell-based. On the procedure:
To determine whether SR 13179 exerts its antiproliferative activity by perturbing the cell cycle, the nuclear morphology of LNCaP cells was visualized after treatment with SR 13179. The cells were exposed to the compound for 28 h at concentrations of either 0.5 μM or 1 μM and then stained with the nuclear dye Hoechst 33258.
To investigate the mitotic arrest in more detail, flow cytometry was used to study the effect of SR 13179 on cell cycle progression for LNCaP cells.
(In general: A flow cytometer gives signals particle by particle.)

A further experiment has as its system HUVEC cells. The experiment can be described thus: Apoptosis in HUVEC cells, TUNEL assay. In kind it is cell-based, human. Here is the method: The antiproliferative mechanism was investigated by assaying for apoptosis using the method of Gavrieli et al. using a Promega (Madison, Wis.) apoptosis detection kit (Gavrieli et al. (1992) J Cell. Biol. 119:493-501). Briefly, HUVEC cells were treated with four log concentrations of SR 13179 (1 nM, 10 nM, 100 nM, and 1 μM) and fixed for terminal deoxyribonucleotide transferase-mediated dUTP nick end labeling (TUNEL) assay at 3 h and 6 h. The apoptotic cells were labeled with fluorescent dUTP at DNA strand breaks, and were counterstained with Hoechst 33258 to visualize nuclear morphology. Even at concentrations as low as 10 nM at 3 h, apoptosis was clearly evident as pyknotic nuclei. […] At six hours, there appeared to be massive apoptosis at higher concentrations of SR 13179, such that the cells were detached and lost during the washing steps. It thus appears that the antiproliferative effect of SR 13179 on vascular endothelial cells is mediated by apoptosis.

Experiment [5] deals with MCF-10CA1a breast cancer cells. The experiment in a line: Boyden-chamber Matrigel invasion/migration assay, MCF-10CA1a. The format is cell-based, human. On the procedure:
Cell Culture. MCF-10CA1a cells were cultured in Dulbecco's Modified Eagle Medium (DMEM) supplemented with 5% bovine serum, 2 mM glutamine and 1 mM non-essential amino acids. MDA-MB231 cells were grown in DMEM supplemented with 5% bovine serum. Cells were routinely maintained in a 5% CO2 incubator at 37° C.
General Procedure for Invasion Assay. MCF 10-CA1a or MDA-MB-231 breast cancer cells were treated with 1 or 5 μM of the compound being tested for 8 h. Cells were removed by trypsinizing and tested for their invasiveness by Boyden-chamber invasion assay. In the in vitro invasion/migration assays, a standard Matrigel-based assay, according to the manufacturer's (Becton-Dickinson) protocol, was used. Rehydrated Matrigel and control inserts were added to Falcon TC companion plates containing human fibronectin (30 μg/ml) as chemoattractant. Cellular suspensions (2×10^4 cells/0.5 ml) were added to individual wells of 24-well chambers (containing either control or Matrigel inserts), and the plates incubated (37° C., 5% CO2) in the presence of the compound being tested or vehicle for an additional 16-18 h. Non-invading or non-migrating cells were removed by scraping the top surfaces of the Matrigel and control inserts, respectively. The invading (or migrating) cells (on the bottom surface) were fixed (3.7% formaldehyde) and stained with Accustain (Sigma). The percent invasion was calculated as mean number of invading cells/the mean number of cells migrating through a control membrane×100.
The in vitro invasion through Matrigel was studied for two human breast cancer lines: MCF-10CA1a, a highly metastatic ER^+ line and MDA-MB-231, an ER^− line. […] At this concentration, SR13179 inhibited invasion of MDA-MB-231 by about 30% (and by 70% at 5 μM). To rule out a cytotoxic effect in the inhibition of invasion, a concurrent cytotoxicity assay was carried out and the number of viable cells was determined by MTT assay. There was less than 5% decrease in MDA-MB-231 cell viability at 5 μM concentration of SR13179 at 22 h. […]

The test system of experiment [6] is lung cancer cell line A427. The experiment can be described thus: Growth inhibition, sulforhodamine-based protein determination, A427. In kind it is cell-based. The note with it: Homo sapiens, A-427, 144 h; continuous exposure six days. On the procedure:
as §1, §2

For the compound `COc1cc(C2CC(O)c3ccc4ccccc4c3O2)cc(OC)c1OC` (stereo not shown) [SR 13179, 2-(3,4,5-trimethoxyphenyl)-3,4-dihydro-2H-benzo[h]chromen-4-ol], the IC50 in experiment [1] was determined as 1360 nM; in experiment [2] it was 180 nM; in experiment [3] it was 529 nM; in experiment [6] it was 510 nM. Also, the “cell-associated MMP-2 protein levels” value in the experiment with MMP-2 is listed as “does not affect”. Moreover, the “nuclear morphology (Hoechst 33258)” value in experiment [4] (0.5 μM or 1 μM, 28 h) is “chromatin condensation characteristic of a prometaphase arrest”. In addition, the “G2/M fraction compared with the control” value in experiment [4] (2 μM and greater, 24 h, flow cytometry) is reported as “two-fold increase”. Besides, the Percent apoptosis in the experiment with HUVEC cells (1 nM, 3 h) is given as 10.3%; in the experiment on HUVEC cells (1 nM, 6 h), 8.5%; in the experiment with HUVEC cells (10 nM, 3 h), 10.3%; in the experiment on HUVEC cells (10 nM, 6 h), “cells detached”; in the experiment with HUVEC cells (100 nM, 3 h), 11.9%; in the experiment on HUVEC cells (100 nM, 6 h), “cells detached”. Also, the Percent apoptosis is reported as 16.7% in the experiment on HUVEC cells (1 μM, 3 h) and “cells detached” in the experiment with HUVEC cells (1 μM, 6 h). Besides, the “increase in the percentage of detected apoptotic cells” value with HUVEC cells (three hours after exposure, versus control) is “two to three fold increase”. Also, in experiment [5] (1 μM), the Invasion is recorded as 10 % of Control. Moreover, the Migration in experiment [5] (1 μM) is recorded as 70 % of Control. Also, in experiment [5] (Homo sapiens, read-out: inhibition of invasion through Matrigel), the inhibition at 1 µM turned out to be 90%.

In general, IC50 refers to the concentration that gives 50% inhibition. Lower therefore signals greater potency. As usually defined, the inhibition is the drop in the measured response relative to a control, in per cent.

(Values after US7638554B2, “Flavanoids as chemotherapeutic, chemopreventive, and antiangiogenic agents” (SRI International, priority 2002, dated 2009).)
